Consider one compound from patent US9820487B2, “Abscinazole” (NATIONAL UNIVERSITY CORPORATION SHIZUOKA UNIVERSITY, priority 2014, dated 2017).

Assay [1] relates to seeds of thale cress (Arabidopsis thaliana, Col-0). Kind of assay: Thale cress seed germination inhibition test (2). Type of assay: in vivo. Conditions: 120 hours after seed plantation (FIG. 3). The procedure: Seeds of thale cress (Arabidopsis thaliana, Col-0) were immersed in […] an aqueous solution of 70% ethanol for 30 minutes, subsequently in 500 μL of 100% ethanol for 1 minute, washed three times in 1 mL of distilled water, then immersed in distilled water and, in a dark place, verbalized at 4° C. for 3 days. A solution of the sample in methanol and a solution of ABA in methanol were put in a 1.5 mL microtube, and methanol was removed therefrom under reduced pressure. An aqueous solution of 0.5% agar (containing 1/2 MS medium inorganic salts) at 70° C. was added thereto, followed by stirring the resultant. The obtained solution was placed in a 96-well plate to provide the medium containing the sample. 20 to 30 vernalized seeds of thale cress were planted in each well and cultured at 22° C. under continuous light to monitor the number of seeds germinated over time. The germination rate was calculated in accordance with the following formula (1). Note that the medium prepared using methanol in the same manner as above was used as an untreated control and a germination rate of 100% was achieved 72 hours later from the seed plantation. Germination rates 72 hours later from the seed plantation are shown in FIG. 1 and initial growth conditions of thale cress 120 hours later are shown in FIG. 2.
Germination rate (%)=Number of seeds germinated/Number of seeds planted×100 . . . (1) […]

In assay [2] the test system is thale cress (Arabidopsis thaliaria, Col-0). Description: Thale cress growth test (survival after dry treatment). The class given is in vivo. The procedure: Five plant bodies of 2-week old thale cress (Arabidopsis thaliaria, Col-0) grown in Gelzan medium (containing MS medium mixed salts and 1% sucrose) were transplanted to a 200 mL-plastic pot containing a culture soil obtained by mixing vermiculite and premix in 1:1 and grown at 22° C. for 2 weeks under the condition of 16 hour light period—8 hour dark period. At this stage, the moisture content was adjusted so that the mass of the pot containing the plant and the culture soil was to be about 150 g. 50 ml, of a 50 μM aqueous solution of the (−) form of Example 1 (containing 0.05% Tween-20 and 0.2% MeOH) was sprayed to the above-ground part on 27 pots (135 seedlings of thale cress in total) once a day for 3 days. The pots on which above-ground part were sprayed with 50 mL of an aqueous solution free from the above compound (containing 0.05% Tween-20 and 0.2% MeOH) once a day for 3 days were used as controls. The pots were dry-treated for 12 days and subsequently watered, and the number of plant bodies survived 3 days later was counted, from which the survival rate was calculated in accordance with the following formula (5).
Survival rate (%)=Number of plant bodies survived (piece)/Total number of plant bodies (piece)×100 . . .(5)

In the case of `COCCOCCOCCOCC#Cc1cccc(/C=C(\[C@@H](O)C(C)(C)C)n2cncn2)c1` [Example 1 (−) Form, (−)-(S)-(E)-1-(3-(2,5,8,11-tetraoxatetradec-13-yn-14-yl)phenyl)-4,4-dimethyl-2-(1H-1,2,4-triazol-1-yl)pent-1-en-3-ol], the “seed germination inhibition compared with (−) form of Comparative Example 1” value in assay [1] is on record as “can inhibit the seed germination even in lower concentrations”. In assay [2] (50 μM aqueous solution sprayed once a day for 3 days, dry-treated 12 days, watered, counted 3 days later, control 15%), the “survival rate after dry treatment” value came to 75%. Besides, the “withering due to dryness” value in assay [2] (sprayed to thale cress, 50 μM, dry treatment 12 days) is listed as “reduced”.
